The results in this text go back to patent US20250017834A1, “SUNSCREEN COMPOSITIONS COMPRISING IMINE ANALOGS OF A SUNSCREEN COMPRISING A KETONE” (Curie Co. Inc., priority 2020, published 2025).

Type in all cases: physicochemical
A short description of data set [1]: UV/Vis spectral properties (UVA, UVB and visible absorption), Cary-50 spectrophotometer. The conditions noted are these: for UV absorption properties compared to oxybenzone: 5 mM or 0.05 mM, FIG. 1; for Absorption spectra compared to oxybenzone: 5 mM (N-Boc-Imine-6 also 0.05 mM), FIG. 3. On the procedure:
Imine-1, Imine-2, and Imine-3 were synthesized, purified, and isolated (see above). All three compounds were separately dissolved in acetonitrile to a final concentration of 5 mM (FIG. 1) or 0.05 mM (FIG. 1, inset) and analyzed by UV/Vis (Cary-50 Spectrophotomer). The spectral properties were compared to oxybenzone in acetonitrile.
Carbamate-1, first described in U.S. Pat. No. 5,490,980A, was synthesized, purified, and isolated (see above). Carbamate-1 was dissolved in acetonitrile to a final concentration of 0.05 mM and analyzed by UV/Vis (Cary-50 Spectrophotomer). The spectral properties were compared to oxybenzone in acetonitrile at a final concentration of 0.05 mM.
Imine-4, Imine-5, and N-Boc-Imine-6 were synthesized, purified, and isolated (see above). All three compounds were separately dissolved in acetonitrile to a final concentration of 5 mM (FIG. 3) and analyzed by UV/Vis (Cary-50 Spectrophotomer). N-Boc-Imine-6 was diluted in acetonitrile to a final concentration of 0.05 mM (FIG. 3, inset) and analyzed by UV/Vis. […] Spectral properties were compared to oxybenzone in acetonitrile at the same concentration.
To understand the solution stability of the Boc-protected imines in protic solvent, N-Boc-Imine-6 was prepared in ethanol in the presence of catalytic glacial acetic acid. Briefly, to a solution of oxybenzone (0.10 g, 0.438 mmol, 1 eq) and N-Boc-1,6-hexanediamine (0.094 g, 0.43 mmol, 1 eq) in ethanol (0.3 mL) was added catalytic glacial acetic acid (1 μL). The reaction mixture was agitated at 900 rpm at 70° C. for 16 hr and monitored by LCMS. […] The reaction was then diluted in ethanol to final concentration of 0.04 mM and analyzed by UV/Vis spectroscopy.
N-Boc-Imine-8 and Imine-8 was synthesized, purified, and isolated (see above). N-Boc-Imine-8 and Imine-8 were dissolved in ethanol to a final concentration of 0.032 mM and 8 mM, respectively (FIG. 6) and analyzed by UV/Vis. (Cary-50 Spectrophotomer). Spectral properties were compared to sulisobenzone in ethanol at similar concentration.
Imine-10 was first dissolved in methyl tert-butyl ether and then diluted in ethanol to a final concentration of 5 mM and 0.04 mM (FIG. 7) and analyzed by UV/Vis. (Cary-50 Spectrophotomer). Spectral properties were compared to oxybenzone at similar concentration.

The nature of data set [2]: Solubility in acetonitrile.
Data set [3] in a line: Solution stability of Boc-protected imine in protic solvent (ethanol), LCMS and UV/Vis. To be noted: 70° C., over 24 hours, catalytic glacial acetic acid. On the procedure:
To understand the solution stability of the Boc-protected imines in protic solvent, N-Boc-Imine-6 was prepared in ethanol in the presence of catalytic glacial acetic acid. Briefly, to a solution of oxybenzone (0.10 g, 0.438 mmol, 1 eq) and N-Boc-1,6-hexanediamine (0.094 g, 0.43 mmol, 1 eq) in ethanol (0.3 mL) was added catalytic glacial acetic acid (1 μL). The reaction mixture was agitated at 900 rpm at 70° C. for 16 hr and monitored by LCMS. Full reaction of the starting material to a single product peak was observed by LCMS indicating completion. The reaction was then diluted in ethanol to final concentration of 0.04 mM and analyzed by UV/Vis spectroscopy. […] Additionally, the Boc-protecting group remained intact throughout the reaction and UV/Vis analysis.

For the molecule `COc1ccc(C(=O)c2ccccc2)c(OC(=O)NCCCCCCNC(=O)OC(C)(C)C)c1` [Carbamate-1, reference compound], the “UV filter properties compared to oxybenzone” value in data set [1] (acetonitrile, 0.05 mM, FIG. 2) is reported as “UVA blocking was reduced”.
Regarding `COc1ccc(/C(=N/Cc2ccccc2)c2ccccc2)c(O)c1` [Imine-1], the “UV absorption properties compared to oxybenzone” value in data set [1] (acetonitrile) was “improved both UVA-1, UVA-2, and UVB absorption properties”.
On the same count and under the same terms, the entry for `COc1ccc(/C(=N/c2ccccc2)c2ccccc2)c(O)c1` [Imine-2] is “improved both UVA-1, UVA-2, and UVB absorption properties”.
On to `COc1ccc(/C(=N/O)c2ccccc2)c(O)c1` [Imine-3], for which, in data set [1] (acetonitrile), the “UV absorption properties compared to oxybenzone” value is “loss in the UVA blocking and reduction in UVB blocking”.
Take `COc1ccc(/C(=N/C(CCC(N)=O)C(=O)O)c2ccccc2)c(O)c1` (centres unmarked) [Imine-5]: the “Absorption spectra compared to oxybenzone” value in data set [1] (acetonitrile) is “encompassed the UVA-1, UVA-2, and UVB regions as well as the visible region of the spectrum (greater than 400 nm)”.
For `COc1ccc(/C(=N/CCCCCCN)c2ccccc2)c(O)c1` [Imine-6], the Solubility in acetonitrile entry in data set [2] was “poor solubility”.
In the case of `COc1cc(O)c(/C(=N\CCCCCCN)c2ccccc2)cc1S(=O)(=O)O` [Imine-8], the “Absorbance compared to sulisobenzone” value in data set [1] (ethanol, N-Boc-Imine-8 0.032 mM, Imine-8 8 mM, FIG. 6) is “retained absorbance in the UVB region and extended absorbance into the UVA region”.
With `CCCCCCOC(=O)c1ccccc1/C(=N/CCCCCCN)c1cccc(N(CC)CC)c1O` [Imine-9], the “Absorbance spectra of DHHB-derived imines” value in data set [1] (data not shown) is given as “red shift of the absorbance spectra, which extends to the visible region”.
In the case of `COc1ccc(/C(=N/CCCCCCNC(=O)OC(C)(C)C)c2ccccc2)c(O)c1` [N-Boc-Imine-6], in data set [1] (acetonitrile), the “Absorption spectra compared to oxybenzone” value was “encompassed the UVA-1, UVA-2, and UVB regions as well as the visible region of the spectrum (greater than 400 nm)”. The “Absorption spectrum in ethanol” value in data set [1] (ethanol, 0.04 mM, reaction mixture diluted, FIG. 4) is “encompasses the UVA and UVB regions as well as the visible region of the spectrum (greater than 400 nm)”. Besides, the “Solution stability without reversion to starting ketone and amine” value in data set [3] is recorded as “stable”.
